Tests used:
Type in all cases: functional, cell-based
COLO 205 = test: Compound was evaluated for cytotoxicity against COLO 205 colon cancer cells ([…] cells); details: Homo sapiens
[1] = Compound was evaluated for cytotoxicity against LAPC4 prostate cancer cells (AR dependent cells); details: Homo sapiens
MCF7 = test: Compound was evaluated for cytotoxicity against MCF-7 breast cancer cells ([…] cells); details: Homo sapiens
[2] = Compound was evaluated for cytotoxicity against MDA-468 breast cancer cells ([…] cells); details: Homo sapiens, MDA-MB-468
PC-3 = test: Compound was evaluated for cytotoxicity against PC3 prostate cancer cells ([…] cells); details: Homo sapiens
LNCaP [3] = test: Compound was evaluated for cytotoxicity against LNCaP prostate cancer cells; details: Homo sapiens
LNCaP [4] = test: Compound was evaluated for cytotoxicity against LNCaP prostate cancer cells (AR dependent cells); details: Homo sapiens

For COC1=C2C[C@H](C)C[C@H](OC)[C@@H](O)[C@H](C)/C=C(\C)C[C@H](OC(N)=O)[C@@H](OC)/C=C\C=C(/C)C(=O)NC(=CC1=O)C2=O, the IC50 (COLO 205) was 20 nM, the IC50 [1] was 25 nM and the IC50 (MCF7) was 30 nM. It also gave an IC50 [2] of 20 nM, an IC50 (PC-3) of 30 nM and an IC50 (LNCaP [3]) of 40 nM. It also gave an IC50 (LNCaP [4]) of 40 nM.

For CO[C@H]1/C=C\C=C(/C)C(=O)NC2=CC(=O)C(NCCCC/C=C\[C@]3(O)CC[C@@]4(C)C5CC=C6CC7(CC[C@]6(C)[C@@]5(C)CC[C@@]43C)OCCO7)=C(C[C@H](C)C[C@H](OC)[C@@H](O)[C@H](C)/C=C(\C)C[C@@H]1OC(N)=O)C2=O (stereo partly specified), the IC50 (LNCaP [3]) was greater than 1000 nM.

Work on CO[C@H]1/C=C\C=C(/C)C(=O)NC2=CC(=O)C(NCCCCC#C[C@]3(O)CC[C@@]4(C)C5CCC6=CC(=O)CC[C@]6(C)[C@@]5(C)CC[C@@]43C)=C(C[C@H](C)C[C@H](OC)[C@@H](O)[C@H](C)/C=C(\C)C[C@@H]1OC(N)=O)C2=O (stereo partly specified) yielded an IC50 (COLO 205) of 200 nM, an IC50 [1] of 40 nM and an IC50 (MCF7) of 300 nM. It also gave an IC50 [2] of 240 nM, an IC50 (PC-3) of 300 nM and an IC50 (LNCaP [3]) of 100 nM. It also gave an IC50 (LNCaP [4]) of 100 nM.

In the case of CO[C@H]1/C=C\C=C(/C)C(=O)NC2=CC(=O)C(NCCCCCCC#C[C@]3(O)CC[C@@]4(C)C5CCC6=CC(=O)CC[C@]6(C)[C@@]5(C)CC[C@@]43C)=C(C[C@H](C)C[C@H](OC)[C@@H](O)[C@H](C)/C=C(\C)C[C@@H]1OC(N)=O)C2=O (stereo partly specified), the IC50 (LNCaP [3]) is reported as greater than 1000 nM.

With CO[C@H]1/C=C\C=C(/C)C(=O)NC2=CC(=O)C(NCCCC#C[C@]3(O)CC[C@@]4(C)C5CCC6=CC(=O)CC[C@]6(C)[C@@]5(C)CC[C@@]43C)=C(C[C@H](C)C[C@H](OC)[C@@H](O)[C@H](C)/C=C(\C)C[C@@H]1OC(N)=O)C2=O (stereo partly specified) the IC50 (LNCaP [3]) was 200 nM.

With CO[C@H]1/C=C\C=C(/C)C(=O)NC2=CC(=O)C(NCCC#C[C@]3(O)CC[C@@]4(C)C5CCC6=CC(=O)CC[C@]6(C)[C@@]5(C)CC[C@@]43C)=C(C[C@H](C)C[C@H](OC)[C@@H](O)[C@H](C)/C=C(\C)C[C@@H]1OC(N)=O)C2=O (stereo partly specified) the IC50 (LNCaP [3]) was greater than 1000 nM.

CO[C@H]1/C=C\C=C(/C)C(=O)NC2=CC(=O)C(NCCCC/C=C/[C@]3(O)CC[C@@]4(C)C5CC=C6CC7(CC[C@]6(C)[C@@]5(C)CC[C@@]43C)OCCO7)=C(C[C@H](C)C[C@H](OC)[C@@H](O)[C@H](C)/C=C(\C)C[C@@H]1OC(N)=O)C2=O (stereo partly specified) showed an IC50 (LNCaP [3]) greater than 1000 nM.

For CO[C@H]1/C=C\C=C(/C)C(=O)NC2=CC(=O)C(NCCCCCC[C@]3(O)CC[C@@]4(C)C5CC=C6CC7(CC[C@]6(C)[C@@]5(C)CC[C@]34C)OCCO7)=C(C[C@H](C)C[C@H](OC)[C@@H](O)[C@H](C)/C=C(\C)C[C@@H]1OC(N)=O)C2=O (stereo partly specified), the IC50 (LNCaP [3]) was greater than 1000 nM.

Work on CO[C@H]1/C=C\C=C(/C)C(=O)NC2=CC(=O)C(NCCCCCC#C[C@]3(O)CC[C@@]4(C)C5CCC6=CC(=O)CC[C@]6(C)[C@@]5(C)CC[C@@]43C)=C(C[C@H](C)C[C@H](OC)[C@@H](O)[C@H](C)/C=C(\C)C[C@@H]1OC(N)=O)C2=O (stereo partly specified) yielded an IC50 (LNCaP [3]) greater than 1000 nM.
